Results on 20 compounds are retold here after patent US6538152B1, “Phenoxyacetic acid derivatives and medicinal compositions containing the same” (Kissei Pharmaceutical Co., Ltd., priority 1998, dated 2003).

Where a name gives a salt, the structure may show the parent alone. Read-outs that look alike come from different tables or passages of the source.

Series [1] deals with T1, β1-adrenoceptor (Rattus norvegicus, UniProt P18090).
T1 construct: Atria of male SD rats (250 to 400 g in body weight) were isolated; from tissue; host or cells: atria of male SD rats
T1 sequence (P18090 whole entry): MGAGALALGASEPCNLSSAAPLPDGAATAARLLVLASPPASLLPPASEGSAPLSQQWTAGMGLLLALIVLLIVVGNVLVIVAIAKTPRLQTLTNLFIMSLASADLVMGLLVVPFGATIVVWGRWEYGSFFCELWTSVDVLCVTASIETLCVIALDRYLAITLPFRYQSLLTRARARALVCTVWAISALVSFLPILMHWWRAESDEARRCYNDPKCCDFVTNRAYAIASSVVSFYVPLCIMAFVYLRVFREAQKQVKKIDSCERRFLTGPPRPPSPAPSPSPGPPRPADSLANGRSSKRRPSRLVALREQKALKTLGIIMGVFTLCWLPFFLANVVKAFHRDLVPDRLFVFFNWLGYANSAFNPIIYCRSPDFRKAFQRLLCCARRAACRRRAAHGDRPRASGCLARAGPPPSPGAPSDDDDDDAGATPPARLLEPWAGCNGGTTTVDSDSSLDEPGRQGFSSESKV
As to the kind of experiment: Experiment for measuring β1-adrenoceptor stimulating effects (heart rate increase in isolated rat atria, Magnus method). The format is cell-based. The following applies: isolated atria of male SD rats, 100% = increase after 10^−8M isoproterenol. On the procedure:
Namely, the experiment was conducted using atria of rats according to the Magnus method. The increment of heart rate after addition of 10^−8M isoproterenol was expressed as 100%. A test compound was added cumulatively.
The Experiment for Measuring β1-adrenoceptor Stimulating Effects
Atria of male SD rats (250 to 400 g in body weight) were isolated and the experiment was conducted according to the Magnus method. The preparations with a tension of 0.5 g were exposed to Krebs-Henseleit solution maintained at 37° C. and gassed with a mixture of 95% oxygen and 5% carbon dioxide. The cardiac contractility was isometrically measured with a force-displacement transducer, and heart rate was recorded via a tachometer. A test compound was added cumulatively. Increase of heart rate per minute after addition of 10^−8M isoproterenol was expressed as 100%.

Series [2] deals with T2, β2-adrenoceptor (Rattus norvegicus, UniProt P10608).
T2 construct: Uteri of pregnant SD rats (pregnancy day 21) were isolated; from tissue; host or cells: uterus (myometrium strips) of pregnant SD rats, day 21
T2 sequence (P10608 whole entry): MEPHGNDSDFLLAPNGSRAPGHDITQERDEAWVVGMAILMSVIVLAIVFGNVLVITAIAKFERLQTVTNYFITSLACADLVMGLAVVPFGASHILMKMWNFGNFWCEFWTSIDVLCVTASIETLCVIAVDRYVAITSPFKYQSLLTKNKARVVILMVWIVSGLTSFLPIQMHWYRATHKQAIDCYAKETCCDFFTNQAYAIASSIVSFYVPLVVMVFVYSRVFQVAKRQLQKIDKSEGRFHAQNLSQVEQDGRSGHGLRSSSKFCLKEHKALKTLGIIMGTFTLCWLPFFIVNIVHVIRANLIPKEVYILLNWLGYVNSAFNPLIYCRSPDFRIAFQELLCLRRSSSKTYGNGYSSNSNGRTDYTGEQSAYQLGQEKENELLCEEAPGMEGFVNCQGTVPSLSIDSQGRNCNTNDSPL
As to the kind of experiment: Experiment for measuring β2-adrenoceptor stimulating effects (inhibition of spontaneous contraction of isolated pregnant rat uterus, Magnus method). The series is classed as cell-based. To be noted: isolated uteri of pregnant SD rats (pregnancy day 21), sum of contractions during 5 minutes. As for the experimental part: Also, uteri of pregnant rats were isolated and preparations were made. The experiment was conducted according to the Magnus method. The sum of uterine contractions during 5 minutes before addition of a test compound was expressed as 100%. The test compound was added cumulatively.
The Experiment for Measuring β2-adrenoceptor Stimulating Effects
Uteri of pregnant SD rats (pregnancy day 21) were isolated and longitudinal strips of approximately 15 mm in length and approximately 5 mm in width free from the basal plate were prepared. The experiment was conducted according to the Magnus method. The preparations with a tension of 0.5 g were exposed to Locke-Ringer solution maintained at 37° C. and gassed with a mixture of 95% oxygen and 5% carbon dioxide. Spontaneous contractions of myometrium were isometrically measured with a force-displacement transducer and recorded. A test compound was cumulatively added to the Magnus bath every 5 minutes.

Series [3] addresses β3-adrenoceptor (Mustela putorius furo, UniProt M3YEU4). As to the kind of experiment: Experiment for measuring β3-adrenoceptor stimulating effects (relaxation of isolated ferret urinary bladder smooth muscle, Magnus method). The following applies: read-out: EC50 value (concentration required to produce 50% of the relaxation of urinary bladder smooth muscle); isolated male ferret urinary bladder strips; 0% = maximal relaxation by 10^−5M forskolin. The format is cell-based. On the procedure: Namely, urinary bladders of ferrets were isolated and preparations were made. The experiment was conducted according to the Magnus method. The […] tension without addition of a test compound is expressed as 100%, and the tension of maximal relaxation after addition of 10^−5M forskolin was expressed as 0%. The test compound was added cumulatively.
The Experiment for Measuring β3-adrenoceptor Stimulating Effects
Urinary bladders of male ferrets (1100 to 1400 g in body weight) were isolated and urinary bladder smooth muscle strips of approximately 10 mm in length and approximately 2 mm in width were prepared. The experiment was conducted according to the Magnus method. The preparations with a tension of 1 g were exposed to Krebs-Henseleit solution maintained at 37° C. and gassed with a mixture of 95% oxygen and 5% carbon dioxide. Basal tensions of urinary bladder were isometrically measured with a force-displacement transducer and recorded. A test compound was cumulatively added to the Magnus bath every about 5 minutes. Tension of urinary bladder smooth muscle before addition of the test compound was expressed as 100% and tension of maximal relaxation induced by 10^−5M of forskolin was expressed as 0%.

Series [4] deals with male ICR rats. As to the kind of experiment: Acute toxicity test. The following applies: male ICR rats of 4 weeks age, oral, 2 g/kg, during 24 hours after the administration, hydrochloride. The series is classed as in vivo, rat. As for the experimental part: Furthermore, the compounds represented by the above general formula (I) of the present invention are very safe.
To male ICR rats of 4 weeks age was administered orally ethyl 2-[2-chloro-4-[2-[[(1S,2R)-2-hydroxy-2-(4-hydroxyphenyl)1-methylethyl]amino]ethyl]phenoxy]acetate hydrochloride at a does of 2 g/kg.

β3-adrenoceptor, sequence (M3YEU4 1-435): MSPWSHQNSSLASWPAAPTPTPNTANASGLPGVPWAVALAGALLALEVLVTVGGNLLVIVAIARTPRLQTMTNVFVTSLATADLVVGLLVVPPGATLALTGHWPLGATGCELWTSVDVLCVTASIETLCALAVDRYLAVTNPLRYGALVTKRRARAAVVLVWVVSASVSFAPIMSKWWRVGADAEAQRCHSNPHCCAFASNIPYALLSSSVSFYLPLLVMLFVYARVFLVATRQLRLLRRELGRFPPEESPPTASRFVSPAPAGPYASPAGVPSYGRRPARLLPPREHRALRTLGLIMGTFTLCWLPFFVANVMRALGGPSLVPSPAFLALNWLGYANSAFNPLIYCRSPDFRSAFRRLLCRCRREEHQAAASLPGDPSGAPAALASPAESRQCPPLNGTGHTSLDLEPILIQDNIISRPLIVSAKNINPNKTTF

In the case of `CCOc1cc(CCN[C@@H](C)[C@H](O)c2ccc(O)cc2)ccc1OCC(=O)O` [Compound 30, 2-[2-Ethoxy-4-[2-[[(1S,2R)-2-hydroxy-2-(4-hydroxyphenyl)-1-methylethyl]amino]ethyl]phenoxy]acetic acid], the EC50 in series [1] is above 100 µM; in series [2], 25 µM.
For `C[C@H](NCCc1ccc(OCC(=O)O)c(F)c1)[C@H](O)c1ccc(O)cc1` [Compound 28, 2-[2-Fluoro-4-[2-[[(1S,2R)-2-hydroxy-2-(4-hydroxyphenyl)-1-methylethyl]amino]ethyl]phenoxy]acetic acid] the same measures were 30 µM and 1.8 µM.
On the same counts, the results for `C[C@H](NCCc1ccc(OCC(=O)O)c(C(F)(F)F)c1)[C@H](O)c1ccc(O)cc1` [Compound 36, 2-[4-[2-[[(1S,2R)-2-Hydroxy-2-(4-hydroxyphenyl)-1-methylethyl]amino]ethyl]-2-(trifluoromethyl)phenoxy]acetic acid hydrochloride] are above 100 µM and 20 µM.
On the same counts, the results for `C[C@H](NCCc1cc(Cl)c(OCC(=O)O)cc1Cl)[C@H](O)c1ccc(O)cc1` [Compound 27, 2-[2,5-Dichloro-4-[2-[[(1S,2R)-2-hydroxy-2-(4-hydroxyphenyl)-1-methylethyl]amino]ethyl]phenoxy]acetic acid] are 49 µM and 0.49 µM.
As to `C[C@H](NCCc1ccc(OCC(=O)O)c(Br)c1)[C@H](O)c1ccc(O)cc1` [Compound 24], the EC50 in series [1] was above 100 µM; in series [2] it was 10 µM.
With `C[C@H](Cc1ccc(OCC(=O)O)cc1)NC[C@H](O)c1cccc(Cl)c1` [(R,R)-BRL-37344, reference compound], the EC50 in series [3] was 0.0016 µM; in series [1] (read-out: EC50 value (concentration required to produce 50% increase of heart rate per minute)) it was 0.27 µM; in series [2] (read-out: EC50 value (concentration required to produce 50% of the inhibition of uterine contraction)) it was 0.009 µM.
Turning to `C[C@H](NCCc1ccc(OCC(=O)O)c(O)c1)[C@H](O)c1ccc(O)cc1` [Compound 46, 2-[2-Hydroxy-4-[2-[[(1S,2R)-2-hydroxy-2-(4-hydroxyphenyl)-1-methylethyl]amino]ethyl]phenoxy]acetic acid], the EC50 in series [1] is 21 µM; in series [2] it was 0.21 µM.
In series [1], `C[C@H](NCCc1ccc(OCC(=O)O)c(Cl)c1)[C@H](O)c1ccc(O)cc1` [Compound 25, 2-[2-Chloro-4-[2-[[(1S,2R)-2-hydroxy-2-(4-hydroxyphenyl)-1-methylethyl]amino]ethyl]phenoxy]acetic acid] had an EC50 of 70 µM.
On to `C[C@H](NCCc1ccc(OCC(=O)O)c([N+](=O)[O-])c1)[C@H](O)c1ccc(O)cc1` [Compound 38, 2-[4-[2-[[(1S,2R)-2-Hydroxy-2-(4-hydroxyphenyl)-1-methylethyl]amino]ethyl]-2-nitrophenoxy]acetic acid], for which the EC50 in series [1] is 58 µM; in series [2], 2.6 µM.
For `C[C@H](NCCc1ccc(OCC(=O)O)c(N(C)C)c1)[C@H](O)c1ccc(O)cc1` [Compound 47, 2-[2-Dimethylamino-4-[2-[[(1S,2R)-2-hydroxy-2-(4-hydroxyphenyl)-1-methylethyl]amino]ethyl]phenoxy]acetic acid] the same measures were above 100 µM and 17 µM.
Regarding `Cc1cc(OCC(=O)O)c(C)cc1CCN[C@@H](C)[C@H](O)c1ccc(O)cc1` [Compound 35, 2-[4-[2-[[(1S,2R)-2-Hydroxy-2-(4-hydroxyphenyl)-1-methylethyl]amino]ethyl]-2,5-dimethylphenoxy]acetic acid], the values for the EC50 in series [1] and in series [2] were 38 µM and 1.8 µM, respectively.
Regarding `COc1cc(CCN[C@@H](C)[C@H](O)c2ccc(O)cc2)ccc1OCC(=O)O` [Compound 29, 2-(4-[2-[[(1S,2R)-2-Hydroxy-2-(4-hydroxyphenyl)-1-methylethyl]amino]ethyl]-2-methoxyphenoxy]acetic acid], the EC50 in series [1] is above 100 µM; in series [2], 3.9 µM.
On the same counts, the results for `C[C@H](NCCc1cc(Cl)c(OCC(=O)O)c(Cl)c1)[C@H](O)c1ccc(O)cc1` [Compound 26] are above 100 µM and 1.4 µM.
On the same counts, the results for `C[C@H](NCCc1ccc(OCC(=O)O)c(C#N)c1)[C@H](O)c1ccc(O)cc1` [Compound 37, 2-[2-Cyano-4-[2-[[(1S,2R)-2-hydroxy-2-(4-hydroxyphenyl)-1-methylethyl]amino]ethyl]phenoxy]acetic acid] are 33 µM and 76 µM.
Take `C[C@H](NCCc1ccc(OCC(=O)O)c(OCc2ccccc2)c1)[C@H](O)c1ccc(O)cc1` [Compound 31, 2-[2-Benzyloxy-4-[2-[[(1S,2R)-2-hydroxy-2-(4-hydroxyphenyl)-1-methylethyl]amino]ethyl]phenoxy]acetic acid]: the EC50 in series [1] is above 100 µM; in series [2] it was 1.9 µM.
With `CCOC(=O)COc1ccc(CCN[C@@H](C)[C@H](O)c2ccc(O)cc2)cc1Cl.Cl` [Compound 48, Ethyl 2-[2-chloro-4-[2-[[(1S,2R)-2-hydroxy-2-(4-hydroxyphenyl)-1-methylethyl]amino]ethyl]phenoxy]acetate hydrochloride], the results for the “Death of animals (acute toxicity)” value in series [4] (listed as ethyl 2-[2-chloro-4-[2-[[(1S,2R)-2-hydroxy-2-(4-hydroxyphenyl)1-methylethyl]amin) and in series [4] (listed as ethyl 2-[2-chloro-4-[2-[[(1S,2R)-2-hydroxy-2-(4-hydroxyphenyl)-1-methylethyl]ami) were “No death of animals was observed” and “no death was observed”, respectively. For the same compound, the EC50 in series [1] turned out to be 17 µM.
As for `C[C@H](NCCc1ccc(OCC(=O)O)c(C(=O)N(C)C)c1)[C@H](O)c1ccc(O)cc1` [Compound 43, 2-[2-(Dimethylaminocarbonyl)-4-[2-[[(1S,2R)-2-hydroxy-2-(4-hydroxyphenyl)-1-methylethyl]amino]ethyl]phenoxy]acetic acid], the EC50 was 58 µM in series [1] and 53 µM in series [2].
In the case of `Cc1cc(CCN[C@@H](C)[C@H](O)c2ccc(O)cc2)ccc1OCC(=O)O` [Compound 33], the EC50 in series [1] was 31 µM; in series [2], 13 µM.
For `CCOC(=O)COc1cc(Cl)c(CCN[C@@H](C)[C@H](O)c2ccc(O)cc2)cc1Cl` [Compound 49, Ethyl 2-[2,5-dichloro-4-[2-[[(1S,2R)-2-hydroxy-2-(4-hydroxyphenyl)-1-methylethyl]amino]ethyl]phenoxy]acetate hydrochloride] the same measures were 6.8 µM and 0.061 µM.
`CCOC(=O)COc1ccc(CCN[C@@H](C)[C@H](O)c2ccc(O)cc2)cc1NC=O` [Compound 40, Ethyl 2-[2-Formylamino-4-[2-[[(1S,2R)-2-hydroxy-2-(4-hydroxyphenyl)-1-methylethyl]amino]ethyl]phenoxy]acetate]: the EC50 in series [1] was 3.5 µM; in series [2], 1 µM.
